Results taken from ChEMBL document CHEMBL5385852, “Structural optimization and biological evaluation of 1-adamantylcarbonyl-4-phenylpiperazine derivatives as FXR agonists for NAFLD” (Eur J Med Chem, 2023).
Calls of active or inactive are those of the source. The rule behind the calls is not given here.

What was measured:
[1] = biological target: T1, Bile acid receptor (Homo sapiens, UniProt Q96RI1); assay: Agonist activity at Gal4-fused FXR LBD (unknown origin) transfected in HEK293T cells co-transfected with Peak12-Gal4UAS-luciferase reporter assessed as receptor transactivation incubated for 24 hrs by firefly luciferase assay; type: cell-based
T1 sequence (Q96RI1 whole entry): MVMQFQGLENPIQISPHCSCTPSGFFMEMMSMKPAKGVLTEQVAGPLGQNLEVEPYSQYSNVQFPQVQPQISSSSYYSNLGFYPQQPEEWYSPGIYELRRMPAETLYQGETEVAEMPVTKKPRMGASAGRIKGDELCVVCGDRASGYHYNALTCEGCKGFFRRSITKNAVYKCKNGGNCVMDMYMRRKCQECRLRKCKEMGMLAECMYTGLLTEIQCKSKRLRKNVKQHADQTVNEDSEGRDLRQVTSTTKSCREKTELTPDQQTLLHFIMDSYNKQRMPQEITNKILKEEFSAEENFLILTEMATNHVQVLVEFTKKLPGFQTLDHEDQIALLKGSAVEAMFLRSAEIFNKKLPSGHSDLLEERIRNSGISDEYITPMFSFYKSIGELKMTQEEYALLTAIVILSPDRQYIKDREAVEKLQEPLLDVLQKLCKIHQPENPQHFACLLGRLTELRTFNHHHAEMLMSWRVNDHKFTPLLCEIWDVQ

[2] = system: Mus musculus; assay: Anti-hyperlipidemic activity in high fat diet induced obese C57BL/6J mouse model assessed as decrease in hepatic triglyceride level at 200 mg/kg; type: functional, organism-based
[3] = system: Mus musculus; assay: Anti-hyperlipidemic activity in high fat diet induced obese C57BL/6J mouse model assessed as decrease in hepatic low density lipoprotein cholesterol level at 200 mg/kg; type: functional, organism-based
[4] = system: Mus musculus; assay: Anti-hyperlipidemic activity in high fat diet induced obese C57BL/6J mouse model assessed as improvement in insulin sensitivity at 200 mg/kg by insulin tolerance test; type: functional, organism-based
[5] = system: Mus musculus; assay: Anti-hyperlipidemic activity in high fat diet induced obese C57BL/6J mouse model assessed as decrease in total cholesterol level at 200 mg/kg; type: functional, organism-based
[6] = system: Mus musculus; assay: Anti-hyperlipidemic activity in high fat diet induced obese C57BL/6J mouse model assessed as decrease in hepatic total cholesterol level at 200 mg/kg; type: functional, organism-based

Row | EC50 [1] [nM] | SMILES | Activity [2] | Activity [3] | Activity [4] | Activity [5] | Activity [6]
1 | 2140 | O=C(N1CCN(c2cc(Cl)ccc2O)CC1)C12CC3CC(CC(C3)C1)C2 | – | – | – | – | –
2 | – | Cc1ccc(Cl)cc1N1CCN(C(=O)C23CC4CC(CC(C4)C2)C3)CC1 | Active | inactive | inactive | inactive | inactive
